Data taken from US12514938B2, “Fibroblast activation protein targeting peptides” (PERSPECTIVE THERAPEUTICS, INC., priority 2023, dated 2026).
*1 amine or outer side, *2 acyl side, *3 side chain or, on linkers, in order; H or OH if unused. Where a SMILES comes first, the peptide text is derived from it. Bridges are numbered along the chain shown (N, C = ends). [ ]: non-standard residue; d: D form. The star is where a group is joined. X2 = NC(=O)CN1CCN(CC(=O)O)CCN(CC(=O)NCCOCCOCCC(=O)NCCSCc2cc(C[*:1])cc(C[*:2])c2)CCN(CC(=O)O)CC1; X1 = NC(=O)CN1CCN(CC(=O)O)CCN(CC(=O)*)CCN(CC(=O)O)CC1; 1Nal = N[C@@H](Cc1cccc2ccccc12)C(=O)O; 2Nal = N[C@@H](Cc1ccc2ccccc2c1)C(=O)O; mXylylene = c1cc(C[*:1])cc(C[*:2])c1; oXylylene = c1ccc(C[*:2])c(C[*:1])c1; Bta = N[C@@H](Cc1csc2ccccc12)C(=O)O; 3Pal = N[C@@H](Cc1cccnc1)C(=O)O; PEG4 = NCCOCCOCCOCCOCCC(=O)O; PEG3 = NCCOCCOCCOCCC(=O)O; PEG2 = NCCOCCOCCC(=O)O; Butyryl = CCCC(=O)*; PEG1 = NCCOCCC(=O)O

Target: T1, Human Fibroblast Activation Protein (FAP) (Homo sapiens, UniProt Q12884)
T1 sequence (Q12884 1-760): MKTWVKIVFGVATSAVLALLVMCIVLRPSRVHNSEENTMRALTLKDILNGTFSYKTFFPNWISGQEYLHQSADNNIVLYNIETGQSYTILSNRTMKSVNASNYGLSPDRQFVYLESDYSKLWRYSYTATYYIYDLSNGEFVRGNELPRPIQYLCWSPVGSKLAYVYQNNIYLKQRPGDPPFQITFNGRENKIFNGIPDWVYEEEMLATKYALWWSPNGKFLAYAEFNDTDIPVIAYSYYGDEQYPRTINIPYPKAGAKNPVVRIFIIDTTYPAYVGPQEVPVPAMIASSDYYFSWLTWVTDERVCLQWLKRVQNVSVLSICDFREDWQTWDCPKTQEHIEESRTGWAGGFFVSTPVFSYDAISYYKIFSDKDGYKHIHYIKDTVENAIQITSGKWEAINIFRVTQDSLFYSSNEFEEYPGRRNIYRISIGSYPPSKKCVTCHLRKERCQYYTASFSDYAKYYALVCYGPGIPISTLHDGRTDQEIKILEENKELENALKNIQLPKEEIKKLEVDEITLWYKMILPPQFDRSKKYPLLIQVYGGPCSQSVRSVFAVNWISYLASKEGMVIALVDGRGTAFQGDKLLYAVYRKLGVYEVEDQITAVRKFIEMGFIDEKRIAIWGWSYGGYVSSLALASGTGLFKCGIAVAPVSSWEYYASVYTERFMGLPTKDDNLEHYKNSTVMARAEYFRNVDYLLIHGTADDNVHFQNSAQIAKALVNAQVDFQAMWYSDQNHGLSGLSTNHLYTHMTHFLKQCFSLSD
Experiment: Enzyme inhibition assay against human FAP (substrate Z-GP-AMC), Example 1
Type: biochemical
Details: human FAP 5 ng/well, 50 μM Z-GP-AMC; Ki from IC50 by Cheng-Prusoff
Protocol: Binding Affinity Against Human Fibroblast Activation Protein (FAP)
An enzyme inhibition assay was performed to determine IC50 values and then the Cheng-Prusoff equation used to calculate the Ki given a known Km of the substrate Z-GP-AMC for FAP. To perform the assay, FAP (5 ng/well) and the test peptide at varying concentrations (i.e. 10^−6 to 10^−12) were incubated in a black 96-well plate for 10 minutes at RT on a shaker plate. Then, the substrate Z-GP-AMC was added to give a final concentration of 50 μM. The total reaction volume per well was 100 μL The reaction was allowed to incubate at RT on a shaker plate for 1 hour protected from light, and then fluorescence read with a BioTek Synergy LX plate reader at an ex/em (360/40 and 460/40). Experiments were performed in at least duplicate, and controls of buffer only, buffer and FAP enzyme, and buffer with substrate and FAP enzyme only were included for comparison. The buffer used for the assay was 50 mM Tris-HCl, 1M NaCl, and 1 mg/mL BSA, pH=7.5. Data was plotted in GraphPad Prism and non-linear regression used to calculate IC50 values. The compounds tested and Ki values of each were as follows: […]

Row | SMILES | Ki [nM]
1 | C[C@@H](O)[C@@H]1NC(=O)[C@@H](NC(=O)[C@H](CO)NC(=O)CCOCCOCCNC(=O)CN2CCN(CC(=O)O)CCN(CC(N)=O)CCN(CC(=O)O)CC2)CSCc2ccccc2CSC[C@@H](C(N)=O)NC(=O)[C@H](Cc2c[nH]c3ccccc23)NC(=O)[C@H](Cc2c[nH]c3ccccc23)NC(=O)[C@H](CCC(N)=O)NC(=O)[C@H](CCC(=O)O)NC(=O)[C@H](Cc2c[nH]c3ccccc23)NC(=O)[C@@H]2CCCN2C1=O [VMT-FAP-2-42, PSC-PEG2-S-[C(oXdB)TPWEQWWC]-NH2] ({X1-PEG2}-SCTPWEQWWC-NH2; linker 2-10 via oXylylene) | 0.29
2 | C[C@@H](O)[C@@H]1NC(=O)[C@@H](NC(=O)[C@H](CO)NC(=O)CCOCCOCCNC(=O)CN2CCN(CC(=O)O)CCN(CC(N)=O)CCN(CC(=O)O)CC2)CSCc2ccccc2CSC[C@@H](C(N)=O)NC(=O)[C@H](Cc2c[nH]c3ccccc23)NC(=O)[C@H](Cc2c[nH]c3ccccc23)NC(=O)[C@H](CCC(=O)O)NC(=O)[C@H](CCC(=O)O)NC(=O)[C@H](Cc2ccccc2)NC(=O)[C@@H]2CCCN2C1=O [VMT-FAP-2-43, PSC-PEG2-S-[C(oXdB)TPFEEWWC]-NH2] ({X1-PEG2}-SCTPFEEWWC-NH2; linker 2-10 via oXylylene) | 0.07
3 | C[C@@H](O)[C@@H]1NC(=O)[C@@H](NC(=O)[C@H](CO)NC(=O)CCOCCOCCNC(=O)CN2CCN(CC(=O)O)CCN(CC(N)=O)CCN(CC(=O)O)CC2)CSCc2cccc(c2)CSC[C@@H](C(N)=O)NC(=O)[C@H](Cc2c[nH]c3ccccc23)NC(=O)[C@H](Cc2c[nH]c3ccccc23)NC(=O)[C@H](CCC(N)=O)NC(=O)[C@H](CCC(=O)O)NC(=O)[C@H](Cc2c[nH]c3ccccc23)NC(=O)[C@@H]2CCCN2C1=O [VMT-FAP-2-48, PSC-PEG2-S-[C(mXdB)TPWEQWWC]-NH2] ({X1-PEG2}-SCTPWEQWWC-NH2; linker 2-10 via mXylylene) | 0.35
4 | CC(=O)N[C@H]1CSCc2cc(CSCCNC(=O)CCOCCOCCNC(=O)CN3CCN(CC(=O)O)CCN(CC(N)=O)CCN(CC(=O)O)CC3)cc(c2)CSC[C@@H](C(N)=O)NC(=O)[C@H](Cc2c[nH]c3ccccc23)NC(=O)[C@H](Cc2c[nH]c3ccccc23)NC(=O)[C@H](CCC(N)=O)NC(=O)[C@H](CCC(=O)O)NC(=O)[C@H](Cc2c[nH]c3ccccc23)NC(=O)[C@@H]2CCCN2C(=O)[C@H]([C@@H](C)O)NC1=O [VMT-FAP-2-51, Ac-[C(mXtB(CA-PEG2-PSC))TPWEQWWC]-NH2] (Ac-CTPWEQWWC-NH2; linker 1-9 via X2) | 0.28
5 | C[C@@H](O)[C@@H]1NC(=O)[C@@H](NC(=O)[C@H](CO)NC(=O)CCOCCOCCNC(=O)CN2CCN(CC(=O)O)CCN(CC(N)=O)CCN(CC(=O)O)CC2)CSCc2ccccc2CSC[C@@H](C(N)=O)NC(=O)[C@H](Cc2c[nH]c3ccccc23)NC(=O)[C@H](Cc2c[nH]c3ccccc23)NC(=O)[C@H](CCC(N)=O)NC(=O)[C@H](CCC(=O)O)NC(=O)[C@H](Cc2ccc3ccccc3c2)NC(=O)[C@@H]2CCCN2C1=O [VMT-FAP-2-53, PSC-PEG2-[SC(oXdB)TP2-NalEQWWC]-NH2] ({X1-PEG2}-SCTP[2Nal]EQWWC-NH2; linker 2-10 via oXylylene) | 0.34
6 | CC(=O)N[C@@H](CO)C(=O)N[C@H]1CSCc2cc(CSCCNC(=O)CCOCCOCCNC(=O)CN3CCN(CC(=O)O)CCN(CC(N)=O)CCN(CC(=O)O)CC3)cc(c2)CSC[C@@H](C(N)=O)NC(=O)[C@H](Cc2c[nH]c3ccccc23)NC(=O)[C@H](Cc2c[nH]c3ccccc23)NC(=O)[C@H](CCC(N)=O)NC(=O)[C@H](CCC(=O)O)NC(=O)[C@H](Cc2c[nH]c3ccccc23)NC(=O)[C@@H]2CCCN2C(=O)[C@H]([C@@H](C)O)NC1=O [VMT-FAP-2-55, Ac-S-[C(mXtB(CA-PEG2-PSC))TPWEQWWC]-NH2] (Ac-SCTPWEQWWC-NH2; linker 2-10 via X2) | 1.12
7 | CCCC(=O)N[C@H]1CSCc2cc(CSCCNC(=O)CCOCCOCCNC(=O)CN3CCN(CC(=O)O)CCN(CC(N)=O)CCN(CC(=O)O)CC3)cc(c2)CSC[C@@H](C(N)=O)NC(=O)[C@H](Cc2c[nH]c3ccccc23)NC(=O)[C@H](Cc2c[nH]c3ccccc23)NC(=O)[C@H](CCC(N)=O)NC(=O)[C@H](CCC(=O)O)NC(=O)[C@H](Cc2c[nH]c3ccccc23)NC(=O)[C@@H]2CCCN2C(=O)[C@H]([C@@H](C)O)NC1=O [VMT-FAP-2-57, But-[C(mXtB(CA-PEG2-PSC))TPWEQWWC]-NH2] (Butyryl-CTPWEQWWC-NH2; linker 1-9 via X2) | 0.71
8 | C[C@@H](O)[C@@H]1NC(=O)[C@@H](NC(=O)[C@H](CO)NC(=O)CCOCCOCCNC(=O)CN2CCN(CC(=O)O)CCN(CC(N)=O)CCN(CC(=O)O)CC2)CSCc2ccccc2CSC[C@@H](C(N)=O)NC(=O)[C@H](Cc2c[nH]c3ccccc23)NC(=O)[C@H](Cc2c[nH]c3ccccc23)NC(=O)[C@H](CCC(N)=O)NC(=O)[C@H](CCC(=O)O)NC(=O)[C@H](Cc2cccc3ccccc23)NC(=O)[C@@H]2CCCN2C1=O [VMT-FAP-2-60, PSC-PEG2-S-[C(oXdB)TP1-NalEQWWC]-NH2] ({X1-PEG2}-SCTP[1Nal]EQWWC-NH2; linker 2-10 via oXylylene) | 0.48
9 | C[C@@H](O)[C@@H]1NC(=O)[C@@H](NC(=O)[C@H](CO)NC(=O)CCOCCOCCNC(=O)CN2CCN(CC(=O)O)CCN(CC(N)=O)CCN(CC(=O)O)CC2)CSCc2ccccc2CSC[C@@H](C(N)=O)NC(=O)[C@H](Cc2c[nH]c3ccccc23)NC(=O)[C@H](Cc2c[nH]c3ccccc23)NC(=O)[C@H](CCC(N)=O)NC(=O)[C@H](CCC(=O)O)NC(=O)[C@H](Cc2csc3ccccc23)NC(=O)[C@@H]2CCCN2C1=O [VMT-FAP-2-61, PCS-PEG2-S-[C(oXdB)TPBtaEQWWC]-NH2] ({X1-PEG2}-SCTP[Bta]EQWWC-NH2; linker 2-10 via oXylylene) | 0.3
10 | C[C@@H](O)[C@@H]1NC(=O)[C@@H](NC(=O)[C@H](CO)NC(=O)CCOCCOCCNC(=O)CN2CCN(CC(=O)O)CCN(CC(N)=O)CCN(CC(=O)O)CC2)CSCc2ccccc2CSC[C@@H](C(N)=O)NC(=O)[C@H](Cc2c[nH]c3ccccc23)NC(=O)[C@H](Cc2c[nH]c3ccccc23)NC(=O)[C@H](CCC(N)=O)NC(=O)[C@H](CCC(=O)O)NC(=O)[C@H](Cc2cccnc2)NC(=O)[C@@H]2CCCN2C1=O [VMT-FAP-2-62, PCS-PEG2-S-[C(oXdB)TP3-PalEQWWC]-NH2] ({X1-PEG2}-SCTP[3Pal]EQWWC-NH2; linker 2-10 via oXylylene) | 0.61
11 | C[C@@H](O)[C@@H]1NC(=O)[C@@H](NC(=O)CCOCCNC(=O)CN2CCN(CC(=O)O)CCN(CC(N)=O)CCN(CC(=O)O)CC2)CSCc2ccccc2CSC[C@@H](C(N)=O)NC(=O)[C@H](Cc2c[nH]c3ccccc23)NC(=O)[C@H](Cc2c[nH]c3ccccc23)NC(=O)[C@H](CCC(N)=O)NC(=O)[C@H](CCC(=O)O)NC(=O)[C@H](Cc2c[nH]c3ccccc23)NC(=O)[C@@H]2CCCN2C1=O [VMT-FAP-2-67, PSC-PEG1-[C(oXdB)TPWEQWWC]-NH2] ({X1-PEG1}-CTPWEQWWC-NH2; linker 1-9 via oXylylene) | 0.08
12 | C[C@@H](O)[C@@H]1NC(=O)[C@@H](NC(=O)CCOCCOCCOCCNC(=O)CN2CCN(CC(=O)O)CCN(CC(N)=O)CCN(CC(=O)O)CC2)CSCc2ccccc2CSC[C@@H](C(N)=O)NC(=O)[C@H](Cc2c[nH]c3ccccc23)NC(=O)[C@H](Cc2c[nH]c3ccccc23)NC(=O)[C@H](CCC(N)=O)NC(=O)[C@H](CCC(=O)O)NC(=O)[C@H](Cc2c[nH]c3ccccc23)NC(=O)[C@@H]2CCCN2C1=O [VMT-FAP-2-68, PSC-PEG3-[C(oXdB)TPWEQWWC]-NH2] ({X1-PEG3}-CTPWEQWWC-NH2; linker 1-9 via oXylylene) | 0.64
13 | C[C@@H](O)[C@@H]1NC(=O)[C@@H](NC(=O)CCOCCOCCOCCOCCNC(=O)CN2CCN(CC(=O)O)CCN(CC(N)=O)CCN(CC(=O)O)CC2)CSCc2ccccc2CSC[C@@H](C(N)=O)NC(=O)[C@H](Cc2c[nH]c3ccccc23)NC(=O)[C@H](Cc2c[nH]c3ccccc23)NC(=O)[C@H](CCC(N)=O)NC(=O)[C@H](CCC(=O)O)NC(=O)[C@H](Cc2c[nH]c3ccccc23)NC(=O)[C@@H]2CCCN2C1=O [VMT-FAP-2-69, PSC-PEG4-[C(oXdB)TPWEQWWC]-NH2] ({X1-PEG4}-CTPWEQWWC-NH2; linker 1-9 via oXylylene) | 0.01
